# Results as given in US20090239749A1, “Biocidal compositions” (priority 2006, published 2009).
# Experiments:
# [1] = cited from earlier work
# Candida albicans (CA) = experiment: Minimum Inhibitory Concentration (MIC) test in YEME media, 96 well plate; type: cell-based
# Description: These materials produced according to Examples 4-6 were examined for their biocidal efficacy by following a standardised Minimum Inhibitory Concentration (MIC) test. The test consisted of known number of cells of a strain of Candida albicans (CA) in YEME (yeast extract malt extract media), inoculating concentrations of the active material and blanks contained in a 96 well plate. The plates were incubated at 37° C. overnight, and then examined with a UV plate reader at a wavelength of 550 nm.
# Equivalent experiments were also conducted to determine the MIC for the biocide active dissolved in a water miscible solvent. In these cases the “blank” reference material was simply a sample of the solvent containing no active compound.
# All experiments were repeated 4 times.
# All experiments were conducted in YEME media against a CA culture.
"MIC (Candida albicans (CA); ketoconazole, initial concentration 0.15 mg/ml active, incubated overnight 37° C.)",SMILES,solubility in water [1],MIC (Candida albicans (CA); dissolved in a water/propylene glycol cosolvent mixture)
–,CC1(C)[C@H](C(=O)O[C@H](C#N)c2cccc(Oc3ccccc3)c2)[C@@H]1/C=C(\Cl)C(F)(F)F (racemic) [λ-cyhalothrin],0.005 µg/mL,–
–,"CO/C=C(/C(=O)OC)c1ccccc1Oc1cc(Oc2ccccc2C#N)ncn1 [Azoxystrobin, methyl(E)-2-{2-[6-(2-cyanophenoxy)pyrimidin-4-yloxy]phenyl}-3-methoxyacrylate]",~6 µg/mL,–
–,"N#Cc1c(Cl)c(Cl)c(Cl)c(C#N)c1Cl [Chlorothalonil, 2,4,5,6-tetrachloroisophthalonitrile]",~0.6 µg/mL,–
65 µg/mL,"CC(=O)N1CCN(c2ccc(OCC3COC(Cn4ccnc4)(c4ccc(Cl)cc4Cl)O3)cc2)CC1 (stereo not shown) [Ketoconazole, acetyl-dichlorophenyl-imidazole]",–,–
–,"CCCC1COC(Cn2cncn2)(c2ccc(Cl)cc2Cl)O1 (stereo not shown) [Propiconazole, 1-(2-(2,4-dichlorophenyl)-4-propyl-1-1,3-dioxolan-2-ylmethyl)-1H-1,2,4-tri azole]",around 100 mg/L,91.6 µg/mL
–,"Oc1cc(Cl)ccc1Oc1ccc(Cl)cc1Cl [Triclosan, 5-chloro-2-(2,4-dichlorophenoxy)-phenol]",17 µg/mL,–
